Results published in patent US20040058851A1, “Specific autoimmune reactions against isomerised/optically inverted epitopes: application for diagnosis of autoimmune diseases” (priority 1999, published 2004).
No end group written: not given here.

How the values were obtained:
[1] = tested on: immunoaffinity purified RA auto-antibodies; assay: Immuno-blotting of cellulose-bound spot peptides with immunoaffinity purified RA auto-antibodies (Example 5); format: binding, human; conditions: IgM RF eluted from IgG Sepharose, 1 μg/mL
Description: Analysis of IgM auto-antibodies opens up the possibility of removing endogenous IgG from the serum samples prior to analysis for auto-antibodies.
1. IgG is coupled to CNBr activated Sepharose using the manufacturers instructions (Pharmacia, Upsala, Sweden).
2. The IgG Sepharose is packed in a suitable column (i.e. a disposable DG10 column, BioRad laboratories, Richmond, Calif.). The column is washed with at least 10 column volumes PBS and with 10 column volumes 0.1 M sodium acetate, 0.15 M sodium chloride pH 3.5 and finally equilibrated in PBS.
3. Serum from RA patients is diluted 10 times in PBS and loaded on the column. The column is washed with PBS until the absorbency (OD 280 nm) reaches base-line.
4. Bound RF's are eluted with 0.1 M sodium acetate, 0.15 M sodium chloride pH 3.5.
5. IgM is separated from IgG and IgA by gel-filtration on a Sephadex G-200 column in 0.1 M sodium acetate, 0.15 M sodium chloride pH 3.5.
6. Eluted IgM is diluted in PBS-BT to 1 μg/mL and assayed as described below.
Seven amino-acid peptides extending over the Asn-315 residue were synthesised by spot synthesis using Whatman 540 paper (Maidstone, U.K.), using the previously described procedures (Frank, 1992, Kramer et al 1994). The peptides were automatically prepared using a spot synthesis method (Abimed, Langenfeld, F R G). The following peptides were synthesised, covalently attached via the carboxy-terminus: […]

[2] = tested on: human immunoglobulin in sera from patients with multiple sclerosis; assay: Homogeneous RIA with 125I BSA-BS3 MBP octapeptide tracer in MS and control sera (Example 6); format: binding; conditions: free peptide 10 μg/ml, 25 μl; % inhibition higher in MS sera than control sera (p=0.008); FIG. 9C
Description: For this purpose the MBP derived octapeptide Pro-Ser-Glu-γ-Gly-Lys-Gly-Arg-Gly (γL) was manufactured synthetically using standard FMOC chemistry. The peptide was conjugated to bovine serum albumin […] by Bis-[sulfosuccinimidyl]suberate(BS^3) according to the manufacturers instructions (Pierce) and iodinated with ^125I using the chloramine T protocol as described in Example 4.
Serum from 9 MS-patients and 8 healthy persons are reacted overnight with ^125I—BSA-S^3-Pro-Ser-Glu-y-Gly-Lys-Gly-Arg-Gly followed by precipitation of immune complexes with protein A Sepharose. Serum samples are diluted 1:200 in IMP buffer. The ^125I BSA-BS^3-Pro-Ser-Glu-y-Gly-Lys-Gly-Arg-Gly tracer is diluted in IMP buffer (to an activity of 100000 CPM/25 μl). Seventy-five Al of diluted serum sample is mixed with 25 μl tracer and 25 μl of either IMP buffer or free (unconjugated/unlabelled) Pro-Ser-Glu-y-Gly-Lys-Gly-Arg-Gly peptide (in a concentration of 10 μg/ml in IMP buffer) is added to this mixture. This mixture incubated overnight at 4° C. Protein A Sepharose (PAS) 20 μl/sample vial is weighed out and washed 3 times with 10 ml IMP washing buffer, and transferred to eppendorf 1.5 ml tubes using a repeater pipette. The PAS is sedimented by centrifugation at 2000 RPM 2 min., and the supernatant is aspirated using a suction device (or a pipette). […]

[3] = tested on: auto-antibodies in RA sera; assay: ELISA of serum auto-antibodies on MTP coated with Thy-GA peptide conjugate (Example 2); format: binding, human; conditions: RA RF+ sera vs RA RF- sera vs control sera; serum diluted one-hundred fold; conjugate coated at 10 μg/ml; FIG. 5
Description: It was investigated whether auto-antibodies would recognise an Asn-315 derived septa-peptide and whether such auto-antibodies are a characteristic feature of rheumatoid arthritis. In order to carry out such investigations the IgG Fc Asn-315 derived (βL) septa-peptide Trp-Leu-Asp-β-Gly-Lys-Glu-Tyr, was manufactured synthetically. The peptide used was a preparation of linear (αL form) Trp-Leu-Asn-Gly-Lys-Glu-Tyr peptide heated to promote isomerisation by the following procedure. The peptide was dissolved in the buffer and heated for 4 hours at 90° C. to promote isomerisation and/or optical inversion. The resulting mix of isomerised (βL) optically inverted (αD and βD) and linear (αL) peptides were analysed by RP-HPLC using a 15-35% acetonitrile gradient in 0.1% TFA over 10 minutes with a flow rate of 1 ml/min, and the isomerisation status of the resulting peaks were studied by amino-acid analysis as described above. This peptide was dissolved at 5 mg/ml in 0.2 M Na-Phosphate pH 9.2. […]
0.5 ml thyroglobulin (30 mg/ml) in 0.1 M Na-phosphate buffer pH 8.0, was added drop-wise (over 2 minutes) and under constant mixing to 0.5 mL of the following solution: 10% GA, 40% H2O, 50% 0.2 M Na-Phosphate pH 8.0. […] The final volume was adjusted to 1500 μL and the protein concentration was determined by a BioRad protein assay performed according to the manufacturers instructions. […]

RA autoantibodies = assay: Competition ELISA: sera pre-incubated with peptides, then Thy-GA-Trp-Leu-*Asx-Gly-Lys-Glu-Tyr coated plates (Example 3); format: binding, human; conditions: 6 RA sera; 50 μl competitor at 50 μg/ml; 17 hours at 4° C.; FIG. 6
Procedure: The binding of RA autoantibodies to the Thy-GA-Trp-Leu-*Asx-Gly-Lys-Glu-Tyr coated plates as described above could be competed out by pre-incubating the sera with Trp-Leu-*Asx-Gly-Lys-Glu-Tyr peptide in solution. The experiment was carried out as follows. Serum samples were diluted one-hundred fold in 10 mM Na-phosphate, 140 mM NaCl, 0.1% tween-20, 1% BSA pH 7.4 (assay buffer). Two-hundred μl was added to 1.5 ml polypropylene tubes followed by addition of 50 μl of the following reagents dissolved in assay buffer at a concentration of 50 μg/ml:
1. Trp-Leu-Asp-β-Gly-Lys-Glu-Tyr. (βL form of the epitope)
2. Trp-Leu-Asn-Gly-Lys-Glu-Tyr (αL form of the epitope)
3. Thy-GA-Trp-Leu-*Asx-Gly-Lys-Glu-Tyr conjugate (prepared as described in example 2).
The tubes were placed at 4° C. for 17 hours, and one-hundred μl of the mixture was added into MTP coated with Thy-GA-Trp-Leu-*Asx-Gly-Lys-Glu-Tyr conjugate. The assay was performed as described above under example 2.

[4] = tested on: auto-antibodies reactive with isomerised IgG Fc Asn-315 derived peptides; assay: Homogeneous RIA with 125I Thy-GA-Trp-Leu-*Asx-Gly-Lys-Glu-Tyr tracer, competition with peptides (Example 4); format: binding, human; conditions: 25 μl of 100, 1000 or 10,000 ng/ml competitor; peptide significant in the highest concentration; P=0.01 by Student's T-Test; FIG. 8
Procedure: A homogeneous RIA assay was developed for measurement of auto-antibodies with reactivity towards the isomerised form of the epitope Trp-Leu-Asn-Gly-Lys-Glu-Tyr derived from the IgG CH^2 region. The assay was performed by incubating serum samples with ^125I Thy-GA-Trp-Leu-*Asx-Gly-Lys-Glu-Tyr over-night followed by precipitation of immune-complexes with protein A Sepharose.
Serum samples are diluted 1:200 in IMP buffer (IMP-buffer: 10 mM Na-Phosphate, pH 7.4, 140 mM NaCl, 5 mM EDTA, 0.5% Triton X-100, 0.1% BSA, 10 μg/ml soy-bean trypsin inhibitor). A Thy-GA-Trp-Leu-*Asx-Gly-Lys-Glu-Tyr conjugate is prepared as described in example 2 and iodinated with ^125I using the chloramine T protocol: 100 μg of the conjugate is diluted in 0.25 M Na2HPO4 to a total volume of 140 μl. 1.5 mCi Na^125I is added followed by 10 μL Chloramin-T (1 mg/ml, prepared freshly). The solution is vortexed for 30 seconds and 150 μL methionine (1 mg/ml) is added and immediately vortexed for 120 sec. The tracer is purified on size exclusion column (type: BIOSEP SEC S-2000, size: 300×7.80 mm) equilibrated with PBS containing 1% BSA Flow rate 1.0 ml/min. 500 μl fractions are collected and analysed in a scintillation counter (γ-counter). The fractions containing the tracer are pooled and used in the homogeneous RIA assay format. […]

## His-Gln-Asp-Trp-Leu-Asp-β-Gly [peptide IV]
[1]
  reactivity of purified RA auto-antibodies towards cellulose-bound peptide: strong reactivity

## Pro-Ser-Glu-γ-Gly-Lys-Gly-Arg-Gly
[2]
  inhibition of binding of the 125I conjugate to human immunoglobulin by free peptide: specifically inhibited

## Trp-Leu-*Asx-Gly-Lys-Glu-Tyr (WLNGKEY; not fully specified (residue 3); printed as Trp-Leu-*Asx-Gly-Lys-Glu-Tyr; also: position 3 Asx: mixture of αD Asn/Asp, βD and βL Asp after heat isomerisation) [linear Trp-Leu-Asn-Gly-Lys-Glu-Tyr heated 4 hours at 90° C; in b143 coated as Thy-GA conjugate]
[3]
  auto-antibody reactivity (ELISA signal, absorbency at 450 nm) compared between patient groups: elevated auto-antibody reactivity
RA autoantibodies
  competition of the binding of RA autoantibodies to Thy-GA-Trp-Leu-*Asx-Gly-Lys-Glu-Tyr coated plates: competed out

## Trp-Leu-Asp-β-Gly-Lys-Glu-Tyr
RA autoantibodies
  competition of the binding of RA autoantibodies to Thy-GA-Trp-Leu-*Asx-Gly-Lys-Glu-Tyr coated plates: able to compete out the binding
[4]
  reactivity in RIA competition (percent inhibition in the presence of competing peptide), group basis: significant reactivity

## Trp-Leu-Asp-β-Gly-lys-Glu-Tyr [VII]
[1]
  reactivity of purified RA auto-antibodies towards cellulose-bound peptide: strong reactivity
